The target in the assay is Complement factor D (Homo sapiens, UniProt P00746). The assay can be described thus: Human Factor D Assay. On the procedure: Human Factor D (purified from human serum, Complement Technology, Inc.) at 80 nM final concentration is incubated with test compound at various concentrations for 5 min at room temperature in 50 mM Tris, 1M NaCl, pH 7.5. A synthetic substrate Z-L-Lys-SBzl and DTNB (Ellman's reagent) are added to final concentrations of 100 μM each. […] IC50 values are calculated by nonlinear regression of complement Factor D reaction rates as a function of test compound concentration.

The structures appear in SMILES notation.

Complement factor D, sequence (P00746 whole entry): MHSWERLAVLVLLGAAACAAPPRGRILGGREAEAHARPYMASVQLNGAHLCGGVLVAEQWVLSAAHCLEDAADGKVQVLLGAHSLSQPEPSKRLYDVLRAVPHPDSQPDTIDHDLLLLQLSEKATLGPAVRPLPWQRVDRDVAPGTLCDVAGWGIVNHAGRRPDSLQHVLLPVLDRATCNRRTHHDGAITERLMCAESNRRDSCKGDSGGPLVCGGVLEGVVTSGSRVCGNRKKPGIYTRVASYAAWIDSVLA

In the case of `CC(=O)c1nn(CC(=O)N2C[C@H](F)C[C@H]2C(=O)NC2CCN(C(=O)c3cn[nH]c3)CC2)c2ccc(-c3cnc(C)nc3)cc12` [US11407738, Example 00330], the IC50 (usually the concentration that inhibits the measured activity by half) is “in the range around 5.5 µM”.

For the origin of these results see BindingDB's records for patent US11407738 (Achillion Pharmaceuticals, 2022).
